From patent US20220176084A1, “MEDICAL DEVICE WITH DRUG-ELUTING COATING ON MODIFIED DEVICE SURFACE” (Bard Peripheral Vascular, Inc., priority 2019, published 2022)
Each block holds one molecule with its values, some of them ahead of it.

How the values were obtained:
[1] = octanol/water; cited from earlier work
[2] = stability under ethylene oxide sterilization, heating and aging; reaction with paclitaxel; settings: for reaction with paclitaxel: ethylene oxide sterilization, heating, aging
[3] = drug absorption by tissue after brief balloon deployment; format: in vivo; settings: formulated with paclitaxel; 0.2-2 minutes of deployment
From the text: Some of the surfactants described herein are very stable under heating. They survive an ethylene oxide sterilization process.
When the chemical compounds described herein are formulated with paclitaxel, a top coat layer may be advantageous in order to prevent premature drug loss during the device delivery process before deployment at the target site, since hydrophilic small molecules sometimes release drug too easily. The chemical compounds herein rapidly elute drug off the balloon during deployment at the target site.
Mixtures or combinations of a surfactant and a water-soluble small molecule confer the advantages of both additives. The water insoluble drug often has a poor compatibility with highly water-soluble chemical compounds, and the surfactant improves compatibility. […] The surfactant reduces drug loss during transit to a target site. The water-soluble chemical compound improves the release of drug off the balloon and absorption of the drug in the tissue.

[4] = cited from earlier work
protein = settings: cited from earlier work
albumin = albumin (Homo sapiens, UniProt P02768); settings: share of protein binding; cited from earlier work
Sequence of albumin (P02768 25-609): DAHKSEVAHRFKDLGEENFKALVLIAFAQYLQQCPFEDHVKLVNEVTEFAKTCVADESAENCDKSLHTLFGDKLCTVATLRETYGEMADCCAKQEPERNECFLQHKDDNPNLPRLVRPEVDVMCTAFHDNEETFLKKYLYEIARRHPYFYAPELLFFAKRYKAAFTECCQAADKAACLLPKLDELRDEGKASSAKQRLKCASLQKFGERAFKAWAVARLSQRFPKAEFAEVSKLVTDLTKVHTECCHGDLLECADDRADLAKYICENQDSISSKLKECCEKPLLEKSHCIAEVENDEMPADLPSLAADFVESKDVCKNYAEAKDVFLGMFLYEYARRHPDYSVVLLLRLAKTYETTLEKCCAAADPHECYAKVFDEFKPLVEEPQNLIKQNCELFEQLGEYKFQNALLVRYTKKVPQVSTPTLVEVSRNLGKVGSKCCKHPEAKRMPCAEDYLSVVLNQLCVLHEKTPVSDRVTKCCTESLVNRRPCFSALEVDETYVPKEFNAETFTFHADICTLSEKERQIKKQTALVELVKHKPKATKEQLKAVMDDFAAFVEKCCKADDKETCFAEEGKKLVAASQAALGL

Molecule: COc1ccc(O)c(C(C)(C)C)c1 [Butylated hydroxyanisole (BHA), Butylated hydroxyanisole]
log P [1]: 1.31

reaction with paclitaxel [2]: reacted with paclitaxel
Molecule: O=C1O[C@H]([C@@H](O)CO)C(O)=C1O [ascorbic acid]

Molecule: O=C(O)c1ccccc1 [benzoic acid]
reaction with paclitaxel [2]: reacted with paclitaxel | stability under ethylene oxide sterilization, heating, and aging process ([2]; experimentally): not stable

reaction with paclitaxel [2]: reacted with paclitaxel
Molecule: OCCNCCO [diethanolamine]
survival of ethylene oxide sterilization process [2]: do not necessarily survive

drug absorption by tissue / drug levels in tissue [3]: unexpectedly high
Molecule: O=C1O[C@H](CO)[C@@H](O)[C@H](O)[C@H]1O [gluconolactone]

Molecule: O=C(O)/C=C\C(=O)O [maleic acids]
water and ethanol solubility ([4]; in words): very high

Molecule: NC(=O)c1cccnc1 [niacinamide]
water and ethanol solubility ([4]; in words): very high

Molecule: CC(=O)O[C@H]1C(=O)[C@@]2(C)[C@H]([C@H](OC(=O)c3ccccc3)[C@]3(O)C[C@H](OC(=O)[C@H](O)[C@@H](NC(=O)c4ccccc4)c4ccccc4)C(C)=C1C3(C)C)[C@]1(OC(C)=O)CO[C@@H]1C[C@@H]2O [paclitaxel, reference compound]
increase of solubility in PBS with the addition of BSA ([4]; PBS, BSA added): over 20 fold

Molecule: CO[C@H]1C[C@@H]2CC[C@@H](C)[C@@](O)(O2)C(=O)C(=O)N2CCCC[C@H]2C(=O)O[C@H]([C@H](C)C[C@@H]2CC[C@@H](O)[C@H](OC)C2)CC(=O)[C@H](C)/C=C(\C)[C@@H](O)[C@@H](OC)C(=O)[C@H](C)C[C@H](C)/C=C/C=C/C=C/1C [rapamycin]
protein bound (protein): 92% | protein bound primarily to albumin (albumin): 97%

drug absorption by tissue / drug levels in tissue [3]: unexpectedly high
Molecule: O=C1O[C@H](CO)[C@@H](O)[C@H]1O [ribonic acid lactone]

Molecule: Cc1ncc(C[n+]2csc(CCO)c2C)c(N)n1 [thiamine]
water and ethanol solubility ([4]; in words): very high

Molecule: PEG-20 sorbitan monolaurate [Tween 20]
log P [1]: about 3.0

Molecule: Sudan Red
solubility in aqueous solvent ([4]; in words): insoluble
